Reference: ChEMBL document CHEMBL1143875, “Synthesis and structure-activity relationships of thiadiazole-derivatives as potent and orally active peroxisome proliferator-activated receptors alpha/delta dual agonists” (Bioorg Med Chem, 2008)

Columns and labels:
[1] = AUC in Sprague-Dawley rat at 0.3 mg/kg administered as multiple dose after 8 days; type: ADME, organism-based; design: dose 0.3 mg/kg; settings: plasma
[2] = AUC in Beagle dog at 0.3 mg/kg administered as multiple dose after 7 days; type: ADME, organism-based, Canis lupus familiaris; design: dose 0.3 mg/kg; settings: plasma
[3] = AUC in Beagle dog at 10 mg/kg administered as single dose on day 7; type: ADME, organism-based, Canis lupus familiaris; design: dose 10 mg/kg; settings: plasma
[4] = system: Mus musculus; assay: […] effect of ob/ob C57BL/6J-leptin deficient obese mouse assessed as increase in liver weight at 0.1 to 3 mg/kg, po after 11 days; type: functional; settings: dose mg/kg 0.1-3
[5] = Cmax in ob/ob C57BL/6J-leptin deficient obese mouse at 3 mg/kg administered as single dose on day 11; type: ADME, organism-based; design: dose 3 mg/kg; settings: in vivo
[6] = Half life in Beagle dog at 10 mg/kg administered as multiple dose after 7 days; type: ADME, organism-based, Canis lupus familiaris; design: dose 10 mg/kg; settings: in vivo
[7] = Half life in Sprague-Dawley rat at 0.3 mg/kg administered as multiple dose after 8 days; type: ADME, organism-based; design: dose 0.3 mg/kg; settings: in vivo

- AUC at 192 h [1]: 2400 ng·h/mL
- AUC at 168 h [2]: 2650 ng·h/mL
- AUC [3]: 57200 ng·h/mL
- Cmax [5]: 19300 ng/mL
- half-life [6]: 6.2 h
- half-life [7]: 5.1 h
SMILES: Cc1cc(SCc2nc(-c3ccc(Cl)c(Cl)c3)ns2)ccc1OC(C)(C)C(=O)O
- Activity [4]: 65%
